This note sets out measurements from patent US8710233B2 (Gruenenthal GmbH, priority 2005, dated 2014).

What is called Ki is a measure of affinity in units of concentration, obtained from inhibition or displacement. The term IC50 denotes the concentration that gives 50% inhibition. Higher therefore signals a need for much substance. By inhibition is commonly meant the share of the control response that was lost under treatment.

Type in all cases: cell-based
One assay has as its target T1, vanilloid receptor (VR1) (Homo sapiens, UniProt Q8NER1).
T1 construct: expressed in transfected cells; host or cells: CHO K1 cells (ECACC), stably transfected
As to the kind of experiment: FLIPR Ca2+ influx assay on CHO K1 cells transfected with the VR1 gene (pharmacological method II). The conditions noted are these: table 4; capsaicin; read-out: Ki (human) Cap.

A further assay addresses VR1/TRPV1 receptor (Homo sapiens, UniProt Q8NER1). As to the kind of experiment: IC50 (human) after pH stimulus. The conditions noted are these: for IC50: table 4; for inhibition at 1 µM: ne = no effect.
Assay [1] addresses T2, vanilloid receptor 1 (VR1/TRPV1) of the rat species (Rattus norvegicus, UniProt O35433).
T2 construct: The spinal column is removed from decapitated rats; from tissue; host or cells: primary cells dissociated from rat dorsal root ganglia
As to the kind of experiment: FLIPR Ca2+ influx assay on rat dorsal root ganglia cells (pharmacological method I). The settings on record: table 4, capsaicin. A digest of the protocol: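 Primary rat dorsal root ganglion cells loaded with 2 μM Fluo-4, Ca2+ influx read on FLIPR as peak fluorescence. Triplicates, at least 3 independent experiments.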

[2] abbreviates: read-out: inhibition in percent, IC50 (human) after pH stimulus.

Like-named read-outs stand apart in the source and are kept apart here.

T2 sequence (O35433 whole entry): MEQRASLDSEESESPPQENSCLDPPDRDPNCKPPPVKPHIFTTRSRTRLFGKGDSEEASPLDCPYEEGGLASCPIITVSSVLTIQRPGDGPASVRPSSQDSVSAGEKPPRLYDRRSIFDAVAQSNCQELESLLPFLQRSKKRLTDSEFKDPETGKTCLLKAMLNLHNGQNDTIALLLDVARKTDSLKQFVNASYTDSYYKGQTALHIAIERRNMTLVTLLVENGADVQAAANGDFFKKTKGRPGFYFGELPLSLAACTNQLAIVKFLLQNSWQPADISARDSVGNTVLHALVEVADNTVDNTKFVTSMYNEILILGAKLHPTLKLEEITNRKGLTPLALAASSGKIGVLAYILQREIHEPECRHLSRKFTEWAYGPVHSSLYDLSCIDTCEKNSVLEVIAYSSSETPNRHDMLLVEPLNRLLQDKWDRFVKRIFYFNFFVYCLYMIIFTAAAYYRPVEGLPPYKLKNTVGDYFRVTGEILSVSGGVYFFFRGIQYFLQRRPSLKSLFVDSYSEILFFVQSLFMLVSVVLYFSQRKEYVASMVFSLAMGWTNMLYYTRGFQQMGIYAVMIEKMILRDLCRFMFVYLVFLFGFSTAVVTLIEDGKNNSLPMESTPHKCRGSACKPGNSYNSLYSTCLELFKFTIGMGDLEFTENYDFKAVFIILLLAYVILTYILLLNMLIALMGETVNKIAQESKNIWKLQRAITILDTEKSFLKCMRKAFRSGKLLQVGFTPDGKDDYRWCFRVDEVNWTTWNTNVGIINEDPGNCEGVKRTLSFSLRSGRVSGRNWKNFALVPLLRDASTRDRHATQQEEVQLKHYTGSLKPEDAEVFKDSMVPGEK
Chain of VR1/TRPV1 receptor (Q8NER1 whole entry): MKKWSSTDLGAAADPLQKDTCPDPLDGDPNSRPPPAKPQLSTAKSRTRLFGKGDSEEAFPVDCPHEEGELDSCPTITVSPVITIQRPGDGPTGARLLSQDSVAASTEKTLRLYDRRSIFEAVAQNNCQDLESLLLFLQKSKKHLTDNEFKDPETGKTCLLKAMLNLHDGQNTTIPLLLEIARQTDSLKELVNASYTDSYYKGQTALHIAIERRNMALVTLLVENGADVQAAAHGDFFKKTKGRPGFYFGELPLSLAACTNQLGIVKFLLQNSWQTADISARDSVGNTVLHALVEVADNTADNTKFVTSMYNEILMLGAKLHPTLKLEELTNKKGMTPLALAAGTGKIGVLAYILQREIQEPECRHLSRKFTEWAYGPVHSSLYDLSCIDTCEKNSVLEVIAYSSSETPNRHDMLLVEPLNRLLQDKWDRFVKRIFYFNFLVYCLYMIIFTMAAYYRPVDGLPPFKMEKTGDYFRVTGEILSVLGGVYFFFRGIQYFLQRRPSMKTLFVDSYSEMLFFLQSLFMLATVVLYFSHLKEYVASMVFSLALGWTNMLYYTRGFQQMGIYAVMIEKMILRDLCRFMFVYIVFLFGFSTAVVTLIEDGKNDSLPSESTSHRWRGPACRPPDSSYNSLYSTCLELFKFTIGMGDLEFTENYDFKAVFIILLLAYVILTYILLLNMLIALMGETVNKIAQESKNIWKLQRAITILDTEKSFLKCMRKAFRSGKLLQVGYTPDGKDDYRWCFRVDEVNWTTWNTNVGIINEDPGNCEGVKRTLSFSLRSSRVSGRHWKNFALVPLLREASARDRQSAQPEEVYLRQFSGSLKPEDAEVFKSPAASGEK
T1 sequence (Q8NER1 whole entry): as above

Take `CC(C(=O)NCc1ccc(C(F)(F)F)nc1OCc1ccc(C(C)(C)C)cc1)c1ccc(NS(C)(=O)=O)c(F)c1` (stereo not shown) [Example 244, N-[2-(4-tert-butyl-benzyloxy)-6-trifluoromethyl-pyridin-3-ylmethyl]-2-(3-fluoro-4-methylsulfonamido-phenyl)-propionamide]: the Ki at vanilloid receptor (VR1) was 2.1 nM; in assay [1] (Ki (rat) Cap.) it was 1.1 nM. This compound gave an IC50 on VR1/TRPV1 receptor of 182 nM.

On to `CC(C(=O)NCc1ccc(C(F)(F)F)nc1OC1Cc2ccccc2C1)c1ccc(NS(C)(=O)=O)c(F)c1` (stereo not shown) [Example 245, 2-(3-fluoro-4-methylsulfonamido-phenyl)-N-[2-(indan-2-yloxy)-6-trifluoromethyl-pyridin-3-ylmethyl]-propionamide], for which the Ki at vanilloid receptor (VR1) came out at 2.7 nM. Besides, on VR1/TRPV1 receptor (setting [2]), the inhibition at 0.1 µM stood at 21% and the inhibition at 1 µM turned out to be 74%. The compound also showed a Ki in assay [1] (Ki (rat) Cap.) of 1.7 nM.

`Cc1ccc(N2CCN(c3cc(C(F)(F)F)ccc3CNC(=O)C(C)c3ccc(NS(C)(=O)=O)c(F)c3)CC2)cc1` (stereo not shown) [Example 246, 2-(3-fluoro-4-methylsulfonamido-phenyl)-N-[2-(4-p-tolyl-piperazin-1-yl)-4-trifluoromethyl-benzyl]-propionamide]: the results for the Ki (on vanilloid receptor (VR1); in assay [1] (read-out: Ki (rat) Cap.)) were 0.7 nM and 0.5 nM, respectively. In addition, at VR1/TRPV1 receptor, it took 87 nM to reach half-maximal inhibition (IC50).

For `Cc1cccc(N2CCN(c3cc(C(F)(F)F)ccc3CNC(=O)C(C)c3ccc(NS(C)(=O)=O)c(F)c3)CC2)c1` (stereo not shown) [Example 247, 2-(3-fluoro-4-methylsulfonamido-phenyl)-N-[2-(4-m-tolyl-piperazin-1-yl)-4-trifluoromethyl-benzyl]-propionamide], the inhibition constant (Ki) on vanilloid receptor (VR1) is 1.8 nM; in assay [1] (read-out: Ki (rat) Cap.), 0.5 nM. Moreover, the inhibition at 0.1 µM on VR1/TRPV1 receptor (setting [2]) was 36%. Moreover, at VR1/TRPV1 receptor (setting [2]), the inhibition at 1 µM is 69%.

In the case of `CC(C(=O)NCc1ccc(C(F)(F)F)cc1N1CCN(c2ccc(C(F)(F)F)cc2)CC1)c1ccc(NS(C)(=O)=O)c(F)c1` (stereo not shown) [Example 248, 2-(3-fluoro-4-methylsulfonamido-phenyl)-N-{4-trifluoromethyl-2-[4-(4-trifluoromethyl-phenyl)-piperazin-1-yl]-benzyl}-propionamide], the Ki was 3.9 nM on vanilloid receptor (VR1) and 0.9 nM in assay [1] (read-out: Ki (rat) Cap.). In addition, the inhibition at 10 µM on VR1/TRPV1 receptor (setting [2]) amounted to 66%. For the same compound, the inhibition at 25 µM on VR1/TRPV1 receptor (@ 25 μM, read-out: inhibition in percent, IC50 (human) after pH stimulus) was determined as 74%.

Take `COc1ccc(N2CCN(c3cc(C(F)(F)F)ccc3CNC(=O)C(C)c3ccc(NS(C)(=O)=O)c(F)c3)CC2)cc1` (stereo not shown) [Example 249, 2-(3-fluoro-4-methylsulfonamido-phenyl)-N-{2-[4-(4-methoxy-phenyl)-piperazin-1-yl]-4-trifluoromethyl-benzyl}-propionamide]: the Ki at vanilloid receptor (VR1) stood at 1.6 nM. Besides, at VR1/TRPV1 receptor (setting [2]), the inhibition at 0.1 µM is 31% and the inhibition at 1 µM was determined as 70%. In addition, the Ki in assay [1] (read-out: Ki (rat) Cap.) is 0.2 nM.

Turning to `CC(C(=O)NCc1ccc(C(F)(F)F)nc1-c1ccc(Cl)c(Cl)c1)c1ccc(NS(C)(=O)=O)c(F)c1` (stereo not shown) [Example 250, N-[2-(3,4-dichloro-phenyl)-6-trifluoromethyl-pyridin-3-ylmethyl]-2-(3-fluoro-4-methylsulfonamido-phenyl)-propionamide], the inhibitory constant (Ki) at vanilloid receptor (VR1) turned out to be 0.9 nM. On VR1/TRPV1 receptor (setting [2]), the inhibition at 1 µM was determined as 51% and the inhibition at 10 µM amounted to 68%. For the same compound, the inhibition constant (Ki) in assay [1] (read-out: Ki (rat) Cap.) came to 0.9 nM.

For the compound `CC(C(=O)NCc1ccc(C(F)(F)F)nc1N1CCC2(CC1)CC(C(C)(C)C)=NO2)c1ccc(NS(C)(=O)=O)c(F)c1` (stereo not shown) [Example 251, N-[2-(3-tert-butyl-1-oxa-2,8-diaza-spiro[4.5]dec-2-en-8-yl)-6-trifluoromethyl-pyridin-3-ylmethyl]-2-(3-fluoro-4-methylsulfonamido-phenyl)-propionamide], the Ki amounted to 3.8 nM on vanilloid receptor (VR1) and 8.7 nM in assay [1] (read-out: Ki (rat) Cap.). Also, the IC50 on VR1/TRPV1 receptor was 281 nM.

As for `CC(C(=O)NCc1ccc(C(F)(F)F)nc1N1CCC2(CC1)CC(c1ccccc1)=NO2)c1ccc(NS(C)(=O)=O)c(F)c1` (stereo not shown) [Example 252, 2-(3-fluoro-4-methylsulfonamido-phenyl)-N-[2-(3-phenyl-1-oxa-2,8-diaza-spiro[4.5]dec-2-en-8-yl)-6-trifluoromethyl-pyridin-3-ylmethyl]-propionamide], the values for the Ki (on vanilloid receptor (VR1); in assay [1] (read-out: Ki (rat) Cap.)) were 6.1 nM and 17.9 nM, respectively. The same compound gave an IC50 at VR1/TRPV1 receptor of 289 nM.

Regarding `COc1ccc(-c2nc(C(F)(F)F)ccc2CNC(=O)C(C)c2ccc(NS(C)(=O)=O)c(F)c2)cc1F` (stereo not shown) [Example 254, 2-(3-fluoro-4-methylsulfonamido-phenyl)-N-[2-(3-fluoro-4-methoxy-phenyl)-6-trifluoromethyl-pyridin-3-ylmethyl]-propionamide], the inhibition constant (Ki) turned out to be 4.2 nM on vanilloid receptor (VR1) and 1.3 nM in assay [1] (read-out: Ki (rat) Cap.). The inhibition at 0.1 µM at VR1/TRPV1 receptor (setting [2]) stood at 19%. In addition, at VR1/TRPV1 receptor (setting [2]), the inhibition at 1 µM turned out to be 63%.

With `CC(C(=O)NCc1ccc(C(F)(F)F)cc1N1CCC(c2ccc(F)cc2)CC1)c1ccc(NS(C)(=O)=O)c(F)c1` (stereo not shown) [Example 255, 2-(3-fluoro-4-methylsulfonamido-phenyl)-N-{2-[4-(4-fluoro-phenyl)-piperidin-1-yl]-4-trifluoromethyl-benzyl}-propionamide], the Ki is 0.9 nM at vanilloid receptor (VR1) and 1.3 nM in assay [1] (read-out: Ki (rat) Cap.). For the same compound, the IC50 against VR1/TRPV1 receptor was 101 nM.

Regarding `CCCCOc1nc(C(F)(F)F)ccc1CNC(=O)C(C)c1ccc(NS(C)(=O)=O)c(C)c1` (stereo not shown) [Example 256, N-(2-butoxy-6-trifluoromethyl-pyridin-3-ylmethyl)-2-(4-methylsulfonamido-3-methyl-phenyl)-propionamide], the inhibition constant Ki on vanilloid receptor (VR1) amounted to 0.6 nM; in assay [1] (read-out: Ki (rat) Cap.) it was 0.3 nM. The inhibition at 1 µM on VR1/TRPV1 receptor (setting [2]) is 59%.

`CCCCCCOc1nc(C(F)(F)F)ccc1CNC(=O)C(C)c1ccc(NS(C)(=O)=O)c(C)c1` (stereo not shown) [Example 257, N-(2-hexyloxy-6-trifluoromethyl-pyridin-3-ylmethyl)-2-(4-methylsulfonamido-3-methyl-phenyl)-propionamide]: the inhibition constant Ki on vanilloid receptor (VR1) was found to be 0.6 nM; in assay [1] (read-out: Ki (rat) Cap.), 0.3 nM. Further, on VR1/TRPV1 receptor (setting [2]), the inhibition at 1 µM is 67%.

For the compound `CC(C(=O)NCc1ccc(C(F)(F)F)nc1OCc1ccc(Cl)cc1)c1ccc(NS(C)(=O)=O)c(F)c1` (stereo not shown) [Example 258, N-[2-(4-chloro-benzyloxy)-6-trifluoromethyl-pyridin-3-ylmethyl]-2-(3-fluoro-4-methylsulfonamido-phenyl)-propionamide], the inhibition constant Ki on vanilloid receptor (VR1) came out at 2.5 nM; in assay [1] (read-out: Ki (rat) Cap.), 1.3 nM. The IC50 against VR1/TRPV1 receptor came out at 132 nM.

Regarding `CC(C(=O)NCc1ccc(C(F)(F)F)nc1N1CCC(CN(C)C)(c2ccccc2)CC1)c1ccc(NS(C)(=O)=O)c(F)c1` (stereo not shown) [Example 259, N-(4-dimethylaminomethyl-4-phenyl-6′-trifluoromethyl-3,4,5,6-tetrahydro-2H-[1,2′]bipyridinyl-3′-ylmethyl)-2-(3-fluoro-4-methylsulfonamido-phenyl)-propionamide], at vanilloid receptor (VR1), the inhibition constant (Ki) is 15.4 nM. For the same compound, on VR1/TRPV1 receptor (setting [2]), the inhibition at 1 µM was found to be 51% and the inhibition at 10 µM turned out to be 47%. In assay [1] (read-out: Ki (rat) Cap.), the Ki worked out at 22.8 nM.

As to `CC(C(=O)NCc1ccc(C(F)(F)F)nc1N1CCN(C2CCCCC2)CC1)c1ccc(NS(C)(=O)=O)c(F)c1` (stereo not shown) [Example 260, N-[2-(4-cyclohexyl-piperazin-1-yl)-6-trifluoromethyl-pyridin-3-ylmethyl]-2-(3-fluoro-4-methylsulfonamido-phenyl)-propionamide], the inhibition constant Ki on vanilloid receptor (VR1) is 21.6 nM. For the same compound, at VR1/TRPV1 receptor (setting [2]), the inhibition at 1 µM was determined as 51% and the inhibition at 10 µM worked out at 66%. The Ki in assay [1] (read-out: Ki (rat) Cap.) was 25.3 nM.

With `CC1CCN(c2nc(C(F)(F)F)ccc2CNC(=O)C(C)c2ccc(NS(C)(=O)=O)cc2)CC1` (stereo not shown) [Example 262, 2-(4-methylsulfonamido-phenyl)-N-(4-methyl-6′-trifluoromethyl-3,4,5,6-tetrahydro-2H-[1,2′]bipyridinyl-3′-ylmethyl)-propionamide], the Ki at vanilloid receptor (VR1) is 1.2 nM. Also, at VR1/TRPV1 receptor (setting [2]), the inhibition at 0.1 µM was determined as 6% and the inhibition at 1 µM is 58%. Also, in assay [1] (read-out: Ki (rat) Cap.), the inhibition constant Ki was 1.7 nM.

On to `CC(C(=O)NCc1ccc(C(F)(F)F)nc1CCC(C)(C)C)c1ccc(NS(C)(=O)=O)c(F)c1` (stereo not shown) [Example 263, N-[2-(3,3-dimethyl-butyl)-6-trifluoromethyl-pyridin-3-ylmethyl]-2-(3-fluoro-4-methylsulfonamido-phenyl)-propionamide], for which the Ki was determined as 0.6 nM on vanilloid receptor (VR1) and 0.7 nM in assay [1] (read-out: Ki (rat) Cap.). At VR1/TRPV1 receptor (setting [2]), the inhibition at 1 µM amounted to 63%.

Regarding `Cc1ccc(CCc2nc(C(F)(F)F)ccc2CNC(=O)C(C)c2ccc(NS(C)(=O)=O)c(F)c2)cc1` (stereo not shown) [Example 264, 2-(3-fluoro-4-methylsulfonamido-phenyl)-N-[2-(2-p-tolyl-ethyl)-6-trifluoromethyl-pyridin-3-ylmethyl]-propionamide], the Ki stood at 0.6 nM on vanilloid receptor (VR1) and 0.9 nM in assay [1] (read-out: Ki (rat) Cap.). This compound returned an IC50 against VR1/TRPV1 receptor of 15.9 nM.

In the case of `CC(C(=O)NCc1ccc(C(F)(F)F)nc1-c1ccc2c(c1)OCCO2)c1ccc(NS(C)(=O)=O)c(F)c1` (stereo not shown) [Example 265, N-[2-(2,3-dihydro-benzo[1,4]dioxin-6-yl)-6-trifluoromethyl-pyridin-3-ylmethyl]-2-(3-fluoro-4-methylsulfonamido-phenyl)-propionamide], the Ki on vanilloid receptor (VR1) came out at 5 nM; in assay [1] (read-out: Ki (rat) Cap.), 2.5 nM. Further, at VR1/TRPV1 receptor (setting [2]), the inhibition at 0.1 µM is 17%. For the same compound, the inhibition at 1 µM on VR1/TRPV1 receptor (setting [2]) is 33%.

Consider `CCCCCCc1nc(C(F)(F)F)ccc1CNC(=O)C(C)c1ccc(NS(C)(=O)=O)c(F)c1` (stereo not shown) [Example 267, 2-(3-fluoro-4-methylsulfonamido-phenyl)-N-(2-hexyl-6-trifluoromethyl-pyridin-3-ylmethyl)-propionamide], for which the Ki was found to be 1.6 nM on vanilloid receptor (VR1) and 1.7 nM in assay [1] (read-out: Ki (rat) Cap.). This compound came in with a 50% inhibitory concentration (IC50) at VR1/TRPV1 receptor of 24 nM.
